Molecules are shown by their SMILES. “And” between values parts separate entries of the source, which are not always exact repeats. Equal values may be shown once. Numbers after ± are expanded uncertainties.

A short description of data set [1]: activity coefficient (dimensionless); of the first substance listed, at infinite dilution; xn = mol fraction of the nth substance listed. The settings on record: Gas, Chromatography, x1 = 0.
For data set [2] the following is noted: 323.15 K; 101.33 kPa; Liquid; Vibrating tube method.

On to `C=CCCCCCCC` [1-nonene] + CCCCCCCCCCCCCC[P+](CCCCCC)(CCCCCC)CCCCCC.F[P-](F)(F)(F)(F)F, for which the activity coefficient in data set [1] (313.15 K) was 2.4 and 2.5; in data set [1] (333.15 K), 2.01 and 1.98; in data set [1] (353.15 K) it was 1.62 and 1.63; in data set [1] (363.15 K) it was 1.54 and 1.55.

In the case of `C#CCCCCC` [1-heptyne] + CCCCCCCCCCCCCC[P+](CCCCCC)(CCCCCC)CCCCCC.F[P-](F)(F)(F)(F)F, the activity coefficient in data set [1] (313.15 K) was 1.96 and 1.8; in data set [1] (333.15 K) it was 1.59 and 1.61; in data set [1] (353.15 K), 1.36 and 1.32; in data set [1] (363.15 K), 1.3 and 1.27.

`C1CCCCCCCC1` [cyclononane] + CCCCCCCCCCCCCC[P+](CCCCCC)(CCCCCC)CCCCCC.F[P-](F)(F)(F)(F)F: the activity coefficient in data set [1] (313.15 K) was 1.88 and 1.89; in data set [1] (333.15 K), 1.57 and 1.6; in data set [1] (353.15 K) it was 1.32 and 1.33; in data set [1] (363.15 K), 1.23 and 1.3.

As for `CCCc1ccccc1` [propylbenzene] + CCCCCCCCCCCCCC[P+](CCCCCC)(CCCCCC)CCCCCC.F[P-](F)(F)(F)(F)F, the activity coefficient in data set [1] (313.15 K) is 1.14 and 1.1; in data set [1] (333.15 K) it was 0.939 and 0.949; in data set [1] (353.15 K), 0.799 and 0.779; in data set [1] (363.15 K) it was 0.777 and 0.735.

Take `C#CCCCCCCCC` [1-decyne] + CCCCCCCCCCCCCC[P+](CCCCCC)(CCCCCC)CCCCCC.F[P-](F)(F)(F)(F)F: the activity coefficient was 2.76 and 2.84 in data set [1] (313.15 K); 2.49 and 2.32 in data set [1] (333.15 K); 1.83 and 1.85 in data set [1] (353.15 K); 1.74 and 1.72 in data set [1] (363.15 K).

As for `CC(C)=O` [acetone] + CCCCCCCCCCCCCC[P+](CCCCCC)(CCCCCC)CCCCCC.F[P-](F)(F)(F)(F)F, the activity coefficient in data set [1] (313.15 K) was 0.648 and 0.694; in data set [1] (333.15 K) it was 0.517 and 0.507; in data set [1] (353.15 K), 0.388 and 0.404; in data set [1] (363.15 K), 0.371 and 0.381.

For `CCCCC` [pentane] + CCCCCCCCCCCCCC[P+](CCCCCC)(CCCCCC)CCCCCC.F[P-](F)(F)(F)(F)F, the activity coefficient in data set [1] (313.15 K) was 1.77 and 1.92; in data set [1] (333.15 K), 1.52 and 1.55; in data set [1] (353.15 K), 1.27 and 1.29; in data set [1] (363.15 K), 1.19 and 1.25.

In the case of `C1CCCCCC1` [cycloheptane] + CCCCCCCCCCCCCC[P+](CCCCCC)(CCCCCC)CCCCCC.F[P-](F)(F)(F)(F)F, the activity coefficient in data set [1] (313.15 K) is 1.57 and 1.6; in data set [1] (333.15 K), 1.3 and 1.33; in data set [1] (353.15 K), 1.08 and 1.1; in data set [1] (363.15 K) it was 1.03 and 1.05.

For the compound `C=CCCCCC` [1-heptene] + CCCCCCCCCCCCCC[P+](CCCCCC)(CCCCCC)CCCCCC.F[P-](F)(F)(F)(F)F, the activity coefficient in data set [1] (313.15 K) is 1.86 and 1.9; in data set [1] (333.15 K) it was 1.58 and 1.59; in data set [1] (353.15 K), 1.32 and 1.36; in data set [1] (363.15 K), 1.27 and 1.3.

Regarding `C#CCCC` [1-pentyne] + CCCCCCCCCCCCCC[P+](CCCCCC)(CCCCCC)CCCCCC.F[P-](F)(F)(F)(F)F, the activity coefficient is 1.52 and 1.44 in data set [1] (313.15 K); 1.28 and 1.27 in data set [1] (333.15 K); 1.05 and 1.15 in data set [1] (353.15 K); 1.03 and 1.09 in data set [1] (363.15 K).

As for `C#CCCCCCCC` [1-nonyne] + CCCCCCCCCCCCCC[P+](CCCCCC)(CCCCCC)CCCCCC.F[P-](F)(F)(F)(F)F, the activity coefficient in data set [1] (313.15 K) was 2.5 and 2.4; in data set [1] (333.15 K), 1.96 and 2.02; in data set [1] (353.15 K), 1.65 and 1.59; in data set [1] (363.15 K), 1.56 and 1.52.

Consider `CO` [methanol] + CCCCCCCCCCCCCC[P+](CCCCCC)(CCCCCC)CCCCCC.F[P-](F)(F)(F)(F)F, for which the activity coefficient was 2.12 and 2.14 in data set [1] (313.15 K); 1.41 and 1.44 in data set [1] (333.15 K); 0.938 and 0.984 in data set [1] (353.15 K); 0.855 and 0.881 in data set [1] (363.15 K).

Regarding `CCC(C)=O` [butanone] + CCCCCCCCCCCCCC[P+](CCCCCC)(CCCCCC)CCCCCC.F[P-](F)(F)(F)(F)F, the activity coefficient in data set [1] (313.15 K) is 0.735 and 0.677; in data set [1] (333.15 K) it was 0.542 and 0.524; in data set [1] (353.15 K), 0.41 and 0.396; in data set [1] (363.15 K), 0.373 and 0.375.

Turning to `C1CCCCCCC1` [cyclooctane] + CCCCCCCCCCCCCC[P+](CCCCCC)(CCCCCC)CCCCCC.F[P-](F)(F)(F)(F)F, the activity coefficient in data set [1] (313.15 K) was 1.64 and 1.8; in data set [1] (333.15 K) it was 1.4 and 1.44; in data set [1] (353.15 K), 1.17 and 1.2; in data set [1] (363.15 K) it was 1.11 and 1.14.

Regarding `C#CCCCC` [1-hexyne] + CCCCCCCCCCCCCC[P+](CCCCCC)(CCCCCC)CCCCCC.F[P-](F)(F)(F)(F)F, the activity coefficient is 1.66 and 1.71 in data set [1] (313.15 K); 1.42 and 1.43 in data set [1] (333.15 K); 1.16 and 1.24 in data set [1] (353.15 K); 1.16 and 1.14 in data set [1] (363.15 K).

`Cc1ccccc1` [toluene] + CCCCCCCCCCCCCC[P+](CCCCCC)(CCCCCC)CCCCCC.F[P-](F)(F)(F)(F)F: the activity coefficient in data set [1] (313.15 K) is 0.772 and 0.814; in data set [1] (333.15 K) it was 0.671 and 0.639; in data set [1] (353.15 K) it was 0.535 and 0.541; in data set [1] (363.15 K) it was 0.506 and 0.516.

With `C=CCCCC` [hex-1-ene] + CCCCCCCCCCCCCC[P+](CCCCCC)(CCCCCC)CCCCCC.F[P-](F)(F)(F)(F)F, the activity coefficient in data set [1] (313.15 K) was 1.67 and 1.7; in data set [1] (333.15 K) it was 1.41 and 1.44; in data set [1] (353.15 K) it was 1.14 and 1.26; in data set [1] (363.15 K), 1.13 and 1.17.

`C#CCCCCCC` [1-octyne] + CCCCCCCCCCCCCC[P+](CCCCCC)(CCCCCC)CCCCCC.F[P-](F)(F)(F)(F)F: the activity coefficient in data set [1] (313.15 K) was 2.19 and 2.03; in data set [1] (333.15 K), 1.79 and 1.75; in data set [1] (353.15 K), 1.44 and 1.56; in data set [1] (363.15 K) it was 1.41 and 1.46.

Take `CCCCCCCCC` [nonane] + CCCCCCCCCCCCCC[P+](CCCCCC)(CCCCCC)CCCCCC.F[P-](F)(F)(F)(F)F: the activity coefficient is 2.77 and 3.04 in data set [1] (313.15 K); 2.43 and 2.47 in data set [1] (333.15 K); 2.09 and 2.05 in data set [1] (353.15 K); 1.98 and 2 in data set [1] (363.15 K).

Take `C=CCCCCCCCC` [1-decene] + CCCCCCCCCCCCCC[P+](CCCCCC)(CCCCCC)CCCCCC.F[P-](F)(F)(F)(F)F: the activity coefficient in data set [1] (313.15 K) is 2.81 and 2.79; in data set [1] (333.15 K), 2.29 and 2.28; in data set [1] (353.15 K), 1.85 and 1.83; in data set [1] (363.15 K), 1.74 and 1.75.

Take `CCCCCCCC` [octane] + CCCCCCCCCCCCCC[P+](CCCCCC)(CCCCCC)CCCCCC.F[P-](F)(F)(F)(F)F: the activity coefficient in data set [1] (313.15 K) was 2.53 and 2.49; in data set [1] (333.15 K), 2.12 and 2.18; in data set [1] (353.15 K), 1.87 and 1.83; in data set [1] (363.15 K), 1.81 and 1.74.

With `C=CCCC` [1-pentene] + CCCCCCCCCCCCCC[P+](CCCCCC)(CCCCCC)CCCCCC.F[P-](F)(F)(F)(F)F, the activity coefficient in data set [1] (313.15 K) was 1.42 and 1.54; in data set [1] (333.15 K), 1.24 and 1.37; in data set [1] (353.15 K) it was 1.07 and 1.13; in data set [1] (363.15 K), 1.05 and 1.07.

As for `CCCCCCC` [heptane] + CCCCCCCCCCCCCC[P+](CCCCCC)(CCCCCC)CCCCCC.F[P-](F)(F)(F)(F)F, the activity coefficient in data set [1] (313.15 K) is 2.25 and 2.19; in data set [1] (333.15 K) it was 1.81 and 2; in data set [1] (353.15 K), 1.65 and 1.67; in data set [1] (363.15 K) it was 1.55 and 1.65.

Take `CCc1ccccc1` [ethylbenzene] + CCCCCCCCCCCCCC[P+](CCCCCC)(CCCCCC)CCCCCC.F[P-](F)(F)(F)(F)F: the activity coefficient was 0.961 and 1 in data set [1] (313.15 K); 0.783 and 0.835 in data set [1] (333.15 K); 0.63 and 0.694 in data set [1] (353.15 K); 0.626 and 0.642 in data set [1] (363.15 K).

The mass density is mass per unit of volume. Turning to `CCCCCCCCCCCCCC[P+](CCCCCC)(CCCCCC)CCCCCC.F[P-](F)(F)(F)(F)F` [trihexyl(tetradecyl)phosphonium hexafluorophosphate(V)], in data set [2], the mass density was found to be 987.15 ± 1.1 kg/m3.

As to `C1CCCCC1` [cyclohexane] + CCCCCCCCCCCCCC[P+](CCCCCC)(CCCCCC)CCCCCC.F[P-](F)(F)(F)(F)F, the activity coefficient was 1.46 and 1.48 in data set [1] (313.15 K); 1.23 and 1.21 in data set [1] (333.15 K); 1.05 and 0.969 in data set [1] (353.15 K); 0.991 and 0.951 in data set [1] (363.15 K).

Consider `CCCCCC` [hexane] + CCCCCCCCCCCCCC[P+](CCCCCC)(CCCCCC)CCCCCC.F[P-](F)(F)(F)(F)F, for which the activity coefficient in data set [1] (313.15 K) was 1.96 and 2.07; in data set [1] (333.15 K) it was 1.69 and 1.79; in data set [1] (353.15 K) it was 1.48 and 1.5; in data set [1] (363.15 K), 1.43 and 1.47.

`CCCCCCCCCC` [decane] + CCCCCCCCCCCCCC[P+](CCCCCC)(CCCCCC)CCCCCC.F[P-](F)(F)(F)(F)F: the activity coefficient in data set [1] (313.15 K) was 3.28 and 3.32; in data set [1] (333.15 K), 2.62 and 2.9; in data set [1] (353.15 K) it was 2.29 and 2.31; in data set [1] (363.15 K) it was 2.19 and 2.24.

Turning to `CCO` [ethanol] + CCCCCCCCCCCCCC[P+](CCCCCC)(CCCCCC)CCCCCC.F[P-](F)(F)(F)(F)F, the activity coefficient in data set [1] (313.15 K) was 2.21 and 2.31; in data set [1] (333.15 K), 1.51 and 1.49; in data set [1] (353.15 K) it was 0.989 and 1.01; in data set [1] (363.15 K), 0.893 and 0.911.

Consider `C1CCCC1` [cyclopentane] + CCCCCCCCCCCCCC[P+](CCCCCC)(CCCCCC)CCCCCC.F[P-](F)(F)(F)(F)F, for which the activity coefficient in data set [1] (313.15 K) was 1.35 and 1.34; in data set [1] (333.15 K), 1.08 and 1.14; in data set [1] (353.15 K), 0.901 and 0.941; in data set [1] (363.15 K), 0.883 and 0.871.

Consider `C=CCCCCCC` [oct-1-ene] + CCCCCCCCCCCCCC[P+](CCCCCC)(CCCCCC)CCCCCC.F[P-](F)(F)(F)(F)F, for which the activity coefficient in data set [1] (313.15 K) is 2.02 and 2.2; in data set [1] (333.15 K) it was 1.75 and 1.79; in data set [1] (353.15 K), 1.51 and 1.48; in data set [1] (363.15 K), 1.44 and 1.43.

On to `c1ccccc1` [benzene] + CCCCCCCCCCCCCC[P+](CCCCCC)(CCCCCC)CCCCCC.F[P-](F)(F)(F)(F)F, for which the activity coefficient in data set [1] (313.15 K) was 0.659 and 0.705; in data set [1] (333.15 K) it was 0.543 and 0.553; in data set [1] (353.15 K), 0.438 and 0.448; in data set [1] (363.15 K), 0.415 and 0.419.

The values above are taken from the NIST ThermoML archive (doi:10.1016/j.jct.2012.01.004).
